Common to all, as to format: in vivo
Test [1] relates to Diamond Back Moth (Plutella xylostella). As to the kind of experiment: Insecticidal effect on diamond back moth (Test Example 1): egg-bearing Chinese cabbage seedling immersed in 50 ppm liquid chemical. Put shortly:
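Seedlings bearing 2-day-old eggs dipped about 30 s in 50 ppm formulated compound, air-dried, held at 25° C. Hatched larvae counted 6 days after immersion; mortality calculated and graded by criterion. Triplicate groups of 10 insects.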

The test system of test [2] is Common Cutworm (Spodoptera litura). As to the kind of experiment: Insecticidal effect on common cutworm (Test Example 2): cabbage leaf piece immersed in 50 ppm liquid chemical. The conditions noted are these: common cutworm (Spodoptera litura) second-instar larvae, 8 days after inoculation, 25° C. A digest of the protocol:
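Cabbage leaf pieces (cv. Shikidori) dipped ~30 s in formulated compound at 50 ppm and air-dried. Second-instar larvae added, kept at 25° C. Dead and alive counted at 8 days to give % mortality, scored against a criterion scale; three groups of 10 insects.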

Test [3] deals with Smaller Tea Tortrix (Adoxophyes sp.). As to the kind of experiment: Insecticidal effect on smaller tea tortrix (Test Example 3): tea leaves immersed in 50 ppm liquid chemical. To be noted: smaller tea tortrix (Adoxophyes sp.) larvae, 8 days after inoculation, 25° C., humidity 70%. Put shortly: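 Tea leaves dipped about 30 seconds in 50 ppm compound preparation, air-dried, then infested with larvae and held at 25° C and 70% humidity. Dead and alive counted 8 days after inoculation; triplicate groups of 10 insects.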

For `Cc1cc(C(F)(C(F)(F)F)C(F)(F)F)ccc1NC(=O)c1cccc(I)c1C(=O)NC(C)CS(=O)(=O)NC(C)C(N)=O` (stereo not drawn) [1-103], the “Insecticidal effect (mortality grade), Test Example 1” value (shortened to “Insecticidal effect … Test Example 1”) in test [1] is “A (Mortality 100%)”. Moreover, the “Insecticidal effect (mortality grade), Test Example 2” value (from here on “Insecticidal effect … Test Example 2”) in test [2] is “A (Mortality 100%)”. Also, the “Insecticidal effect (mortality grade), Test Example 3” value (“Insecticidal effect … Test Example 3” for short) in test [3] is given as “A (Mortality 100%)”.
Take `CCNC(=O)C(C)NS(=O)(=O)CC(C)NC(=O)c1c(I)cccc1C(=O)Nc1ccc(C(F)(C(F)(F)F)C(F)(F)F)cc1C` (stereo not drawn) [1-104]: the “Insecticidal effect … Test Example 1” value in test [1] is given as “A (Mortality 100%)”. Besides, in test [2], the “Insecticidal effect … Test Example 2” value is reported as “A (Mortality 100%)”. Further, the “Insecticidal effect … Test Example 3” value in test [3] is recorded as “A (Mortality 100%)”.
On to `CCN(CC)C(=O)CNS(=O)(=O)CC(C)NC(=O)c1c(I)cccc1C(=O)Nc1ccc(C(F)(C(F)(F)F)C(F)(F)F)cc1C` (stereo not drawn) [1-105], for which the “Insecticidal effect … Test Example 1” value in test [1] is listed as “A (Mortality 100%)”. Besides, in test [2], the “Insecticidal effect … Test Example 2” value was “A (Mortality 100%)”. Besides, in test [3], the “Insecticidal effect … Test Example 3” value was “E (Mortality less than 50%)”.
Take `Cc1cc(C(F)(C(F)(F)F)C(F)(F)F)ccc1NC(=O)c1cccc(I)c1C(=O)NC(C)CS(=O)(=O)Nc1ccccc1` (stereo not drawn) [1-106]: in test [1], the “Insecticidal effect … Test Example 1” value is on record as “A (Mortality 100%)”. The “Insecticidal effect … Test Example 2” value in test [2] is given as “E (Mortality less than 50%)”. Further, the “Insecticidal effect … Test Example 3” value in test [3] was “E (Mortality less than 50%)”.
`Cc1cc(C(F)(C(F)(F)F)C(F)(F)F)ccc1NC(=O)c1cccc(I)c1C(=O)NC(C)CS(=O)(=O)Nc1ccccc1F` (stereo not drawn) [1-107]: the “Insecticidal effect … Test Example 1” value in test [1] was “A (Mortality 100%)”. The “Insecticidal effect … Test Example 2” value in test [2] is on record as “C (Mortality 89–80%)”. The “Insecticidal effect … Test Example 3” value in test [3] is listed as “A (Mortality 100%)”.
On to `COc1ccccc1NS(=O)(=O)CC(C)NC(=O)c1c(I)cccc1C(=O)Nc1ccc(C(F)(C(F)(F)F)C(F)(F)F)cc1C` (stereo not drawn) [1-108], for which, in test [1], the “Insecticidal effect … Test Example 1” value is recorded as “A (Mortality 100%)”. The “Insecticidal effect … Test Example 2” value in test [2] is recorded as “A (Mortality 100%)”. Moreover, the “Insecticidal effect … Test Example 3” value in test [3] was “A (Mortality 100%)”.
Regarding `Cc1cc(C(F)(C(F)(F)F)C(F)(F)F)ccc1NC(=O)c1cccc(I)c1C(=O)NC(C)CS(=O)(=O)Nc1cccc(F)c1` (stereo not drawn) [1-109], in test [1], the “Insecticidal effect … Test Example 1” value is “A (Mortality 100%)”. The “Insecticidal effect … Test Example 2” value in test [2] is “E (Mortality less than 50%)”. Also, the “Insecticidal effect … Test Example 3” value in test [3] was “A (Mortality 100%)”.
Regarding `Cc1cc(C(F)(C(F)(F)F)C(F)(F)F)ccc1NC(=O)c1cccc(I)c1C(=O)NC(C)CS(=O)(=O)Nc1ccc(F)cc1` (stereo not drawn) [1-110], the “Insecticidal effect … Test Example 1” value in test [1] is “A (Mortality 100%)”. Also, the “Insecticidal effect … Test Example 2” value in test [2] is “E (Mortality less than 50%)”. Besides, in test [3], the “Insecticidal effect … Test Example 3” value is reported as “E (Mortality less than 50%)”.
As for `COc1ccc(NS(=O)(=O)CC(C)NC(=O)c2c(I)cccc2C(=O)Nc2ccc(C(F)(C(F)(F)F)C(F)(F)F)cc2C)cc1` (stereo not drawn) [1-111], the “Insecticidal effect … Test Example 1” value in test [1] is on record as “A (Mortality 100%)”. Also, the “Insecticidal effect … Test Example 2” value in test [2] is given as “E (Mortality less than 50%)”. In addition, in test [3], the “Insecticidal effect … Test Example 3” value is on record as “E (Mortality less than 50%)”.
For the compound `CSc1ccc(NS(=O)(=O)CC(C)NC(=O)c2c(I)cccc2C(=O)Nc2ccc(C(F)(C(F)(F)F)C(F)(F)F)cc2C)cc1` (stereo not drawn) [1-112], the “Insecticidal effect … Test Example 1” value in test [1] is “A (Mortality 100%)”. Further, the “Insecticidal effect … Test Example 2” value in test [2] is recorded as “E (Mortality less than 50%)”. Besides, the “Insecticidal effect … Test Example 3” value in test [3] is listed as “E (Mortality less than 50%)”.
As for `CONS(=O)(=O)CC(C)NC(=O)c1c(I)cccc1C(=O)Nc1ccc(C(F)(C(F)(F)F)C(F)(F)F)cc1C` (stereo not drawn) [1-116], the “Insecticidal effect … Test Example 1” value in test [1] was “A (Mortality 100%)”. Also, in test [2], the “Insecticidal effect … Test Example 2” value is listed as “D (Mortality 79–50%)”. Also, the “Insecticidal effect … Test Example 3” value in test [3] was “A (Mortality 100%)”.
Regarding `CCN(CC)S(=O)(=O)CC(C)NC(=O)c1c(I)cccc1C(=O)Nc1ccc(C(F)(C(F)(F)F)C(F)(F)F)cc1C` (stereo not drawn) [1-144], the “Insecticidal effect … Test Example 1” value in test [1] was “A (Mortality 100%)”. In addition, the “Insecticidal effect … Test Example 2” value in test [2] is reported as “A (Mortality 100%)”. Moreover, the “Insecticidal effect … Test Example 3” value in test [3] is recorded as “A (Mortality 100%)”.
`Cc1cc(C(F)(C(F)(F)F)C(F)(F)F)ccc1NC(=O)c1cccc(I)c1C(=O)N[C@@H](C)CS(=O)(=O)NCc1ccccc1` [1-146]: the “Insecticidal effect … Test Example 1” value in test [1] is reported as “A (Mortality 100%)”. Besides, the “Insecticidal effect … Test Example 2” value in test [2] is “A (Mortality 100%)”. Also, the “Insecticidal effect … Test Example 3” value in test [3] is “A (Mortality 100%)”.
In the case of `CSC[C@H](C)NS(=O)(=O)C[C@H](C)NC(=O)c1c(I)cccc1C(=O)Nc1ccc(C(F)(C(F)(F)F)C(F)(F)F)cc1C` [1-147], the “Insecticidal effect … Test Example 1” value in test [1] is listed as “A (Mortality 100%)”. The “Insecticidal effect … Test Example 2” value in test [2] was “A (Mortality 100%)”. Besides, the “Insecticidal effect … Test Example 3” value in test [3] was “A (Mortality 100%)”.
In the case of `Cc1cc(C(F)(C(F)(F)F)C(F)(F)F)ccc1NC(=O)c1cccc(I)c1C(=O)N[C@@H](C)CS(=O)(=O)N[C@@H](C)C[S+](C)[O-]` (stereo partly drawn) [1-148], in test [1], the “Insecticidal effect … Test Example 1” value is listed as “A (Mortality 100%)”. Further, the “Insecticidal effect … Test Example 2” value in test [2] is “A (Mortality 100%)”. In addition, in test [3], the “Insecticidal effect … Test Example 3” value was “A (Mortality 100%)”.
As to `Cc1cc(C(F)(C(F)(F)F)C(F)(F)F)ccc1NC(=O)c1cccc(I)c1C(=O)N[C@@H](C)CS(=O)(=O)N[C@@H](C)CS(C)(=O)=O` [1-149], the “Insecticidal effect … Test Example 1” value in test [1] is reported as “A (Mortality 100%)”. In addition, the “Insecticidal effect … Test Example 2” value in test [2] is recorded as “A (Mortality 100%)”. Besides, the “Insecticidal effect … Test Example 3” value in test [3] is recorded as “A (Mortality 100%)”.
As to `Cc1cc(C(F)(C(F)(F)F)C(F)(F)F)ccc1NC(=O)c1cccc(I)c1C(=O)NC(C)(C)CS(N)(=O)=O` [1-175, 3-iodo-N^1-{2-methyl-4-[1,2,2,2-tetrafluoro-1-(trifluoromethyl)ethyl]phenyl}-N^2-(2-sulfamoyl-1,1-dimethylethyl)phthalamide], the “Insecticidal effect … Test Example 1” value in test [1] was “A (Mortality 100%)”. Moreover, the “Insecticidal effect … Test Example 2” value in test [2] was “A (Mortality 100%)”. In addition, the “Insecticidal effect … Test Example 3” value in test [3] is listed as “A (Mortality 100%)”.
As for `CNS(=O)(=O)CC(C)(C)NC(=O)c1c(I)cccc1C(=O)Nc1ccc(C(F)(C(F)(F)F)C(F)(F)F)cc1C` [1-176], the “Insecticidal effect … Test Example 1” value in test [1] is “A (Mortality 100%)”. For the same compound, in test [2], the “Insecticidal effect … Test Example 2” value was “A (Mortality 100%)”. Besides, the “Insecticidal effect … Test Example 3” value in test [3] is listed as “A (Mortality 100%)”.
For the compound `Cc1cc(C(F)(C(F)(F)F)C(F)(F)F)ccc1NC(=O)c1cccc(I)c1C(=O)NC(C)(C)CS(=O)(=O)N(C)C` [1-177], in test [1], the “Insecticidal effect … Test Example 1” value is “A (Mortality 100%)”. For the same compound, in test [2], the “Insecticidal effect … Test Example 2” value was “A (Mortality 100%)”. For the same compound, the “Insecticidal effect … Test Example 3” value in test [3] is listed as “A (Mortality 100%)”.
Take `CCNS(=O)(=O)CC(C)(C)NC(=O)c1c(I)cccc1C(=O)Nc1ccc(C(F)(C(F)(F)F)C(F)(F)F)cc1C` [1-178]: the “Insecticidal effect … Test Example 1” value in test [1] was “A (Mortality 100%)”. For the same compound, the “Insecticidal effect … Test Example 2” value in test [2] is on record as “A (Mortality 100%)”. Besides, the “Insecticidal effect … Test Example 3” value in test [3] was “A (Mortality 100%)”.
On to `CCN(CC)S(=O)(=O)CC(C)(C)NC(=O)c1c(I)cccc1C(=O)Nc1ccc(C(F)(C(F)(F)F)C(F)(F)F)cc1C` [1-179], for which the “Insecticidal effect … Test Example 1” value in test [1] is on record as “A (Mortality 100%)”. For the same compound, the “Insecticidal effect … Test Example 2” value in test [2] is “A (Mortality 100%)”. Moreover, in test [3], the “Insecticidal effect … Test Example 3” value is given as “A (Mortality 100%)”.
`CCCCNS(=O)(=O)CC(C)(C)NC(=O)c1c(I)cccc1C(=O)Nc1ccc(C(F)(C(F)(F)F)C(F)(F)F)cc1C` [1-180]: the “Insecticidal effect … Test Example 1” value in test [1] was “A (Mortality 100%)”. The “Insecticidal effect … Test Example 2” value in test [2] is on record as “C (Mortality 89–80%)”. In addition, the “Insecticidal effect … Test Example 3” value in test [3] is “A (Mortality 100%)”.
With `Cc1cc(C(F)(C(F)(F)F)C(F)(F)F)ccc1NC(=O)c1cccc(I)c1C(=O)NC(C)(C)CS(=O)(=O)N1CCCC1` [1-181], the “Insecticidal effect … Test Example 1” value in test [1] is recorded as “A (Mortality 100%)”. In addition, in test [2], the “Insecticidal effect … Test Example 2” value is given as “A (Mortality 100%)”. Also, the “Insecticidal effect … Test Example 3” value in test [3] was “A (Mortality 100%)”.
On to `Cc1cc(C(F)(C(F)(F)F)C(F)(F)F)ccc1NC(=O)c1cccc(I)c1C(=O)NC(C)(C)CS(=O)(=O)NCc1ccccc1` [1-184], for which the “Insecticidal effect … Test Example 1” value in test [1] is listed as “A (Mortality 100%)”. The “Insecticidal effect … Test Example 2” value in test [2] was “A (Mortality 100%)”. Further, the “Insecticidal effect … Test Example 3” value in test [3] is recorded as “A (Mortality 100%)”.
For `CCNS(=O)(=O)CCCC(C)(C)NC(=O)c1c(I)cccc1C(=O)Nc1ccc(C(F)(C(F)(F)F)C(F)(F)F)cc1C` [1-200], the “Insecticidal effect … Test Example 1” value in test [1] is “A (Mortality 100%)”. In addition, the “Insecticidal effect … Test Example 2” value in test [2] is listed as “A (Mortality 100%)”. Besides, the “Insecticidal effect … Test Example 3” value in test [3] was “A (Mortality 100%)”.
As to `CCN(CC)S(=O)(=O)CCCC(C)(C)NC(=O)c1c(I)cccc1C(=O)Nc1ccc(C(F)(C(F)(F)F)C(F)(F)F)cc1C` [1-201], in test [1], the “Insecticidal effect … Test Example 1” value is “A (Mortality 100%)”. For the same compound, in test [2], the “Insecticidal effect … Test Example 2” value is listed as “A (Mortality 100%)”. The “Insecticidal effect … Test Example 3” value in test [3] was “A (Mortality 100%)”.
